Structures are written as SMILES.

What all share (type): in vivo
For assay [1], the system named is melon aphids (Aphis gossypii Glover). Nature of the assay: Mite/insect screen, MA. The note with it: Aphis gossypii, percent mortality, SAW, read-out: MA RESULTS %; for mortality at 400 ppm: SM & MA RATE 400 PPM; for mortality at 200 ppm: SM & MA RATE 200 PPM. The procedure: (§1) The compounds of Examples 1-295 were tested for miticidal and insecticidal activity in the following mite/insect screen.
(§2) Each test compound was formulated by dissolving the compound in acetone/alcohol (50:50) mixture containing 23 g of "TOXIMUL R" (sulfonate/nonionic emulsifier blend) and 13 g of "TOXIMUL S" (sulfonate/nonionic emulsifier blend) per liter. These mixtures were then diluted with water to give the indicated concentrations.
(§3) Other plants in the same treatment pot were left uninfested. The leaves were then sprayed with 5 ml of test solution using a DeVilbiss atomizing sprayer at 10 psi. Both surfaces of the leaves were covered until runoff, and then allowed to dry for one hour. Two uninfested leaves were then excised and placed into a Petri dish containing southern armyworm (Spodopetra eridania Cramer).
(§4) After standard exposure periods, percent mortality was evaluated. […]

Assay [2] deals with Botrytis cinerea (gray mold). Nature of the assay: Test 1 greenhouse foliar spray screen, gray mold on grape berries. As to conditions: disease control rating, spray on grape berries, 400 ppm (+++ at 100 ppm).
In assay [3] the test system is Pyricularia oryzae (rice blast). Nature of the assay: whole plant or invertebrate. As to conditions: disease control rating, foliar spray on rice, 400 ppm (+++ at 100 ppm).
The test system of assay [4] is southern armyworm (Spodopetra eridania Cramer). Nature of the assay: Mite/insect screen, SAW. As to conditions: Spodoptera eridania, percent mortality, SAW, read-out: SAW RESULTS %; for mortality at 400 ppm: SM & MA RATE 400 PPM; for mortality at 200 ppm: SM & MA RATE 200 PPM. The procedure: as §1, §2, §3, §4
The test system of assay [5] is Puccinia recondita tritici (leaf rust). Nature of the assay: Test 1 greenhouse foliar spray screen, leaf rust on wheat. As to conditions: disease control rating, foliar spray on wheat, 400 ppm (+++ at 100 ppm).
Assay [6] concerns Pseudoperonospora cubensis (downy mildew). Nature of the assay: Test 1 greenhouse foliar spray screen, downy mildew on squash. The note with it: disease control rating, foliar spray on squash, 400 ppm (+++ at 100 ppm).
Assay [7] has as its system Twospotted spider mites (Tetranychus urticae Koch). Nature of the assay: Mite/insect screen, SM. As to conditions: for mortality at 400 ppm / mortality at 200 ppm: Tetranychus urticae, percent mortality, SAW, read-out: SM RESULTS %; for mortality at 400 ppm: SM & MA RATE 400 PPM; for mortality at 200 ppm: SM & MA RATE 200 PPM. The procedure: as §1, §2, §3, §4
Assay [8] deals with corn rootworm. Nature of the assay: Mite/insect screen, CRW. As to conditions: percent mortality, read-out: CRW RESULTS %; for mortality at 24 ppm: CRW RATE 24.00 PPM; for mortality at 12 ppm: CRW RATE 12.00 PPM. The procedure: as §1, §2, §4
Assay [9] relates to Erysiphe graminis tritici (powdery mildew). Nature of the assay: Test 1 greenhouse foliar spray screen, powdery mildew on wheat. As to conditions: disease control rating, foliar spray on wheat, 400 ppm (+++ at 100 ppm).

On to `Fc1cccc2c(NCCc3ccccc3Oc3ccccc3)ccnc12` [Example 63, 8-fluoro-N-[2-(2-phenoxyphenyl)ethyl]-4-quinolinamine], for which the mortality at 400 ppm in assay [1], in assay [4] and in assay [7] was 0% each time. In addition, the “GRAY MOLD” value in [2] is reported as “- (0-19% control at 400 ppm)”. The “RICE BLAST” value in assay [3] is “+ (20-89% control at 400 ppm)”. Besides, in [5], the “LEAF RUST” value is given as “+++ (90-100% control at 100 ppm)”. In assay [6], the “DOWN MDEW” value is reported as “++ (90-100% control at 400 ppm)”. For the same compound, the mortality at 24 ppm in [8] was 0%. The “POWD MDEW” value in assay [9] was “- (0-19% control at 400 ppm)”.

`Cc1ccc2c(NCCc3ccccc3Oc3ccccc3)ccnc2c1C` [Example 64, 7,8-dimethyl-N-[2-(2-phenoxyphenyl)ethyl]-4-quinolinamine]: the mortality at 200 ppm in assay [1] worked out at 0%; in assay [4], 60%; in assay [7] it was 0%. In addition, the mortality at 400 ppm in assay [1], in [4] and in [7] was 0% in each case. In addition, in assay [2], the “GRAY MOLD” value is given as “- (0-19% control at 400 ppm)”. In assay [3], the “RICE BLAST” value is recorded as “- (0-19% control at 400 ppm)”. Also, the “LEAF RUST” value in [5] is “+ (20-89% control at 400 ppm)”. Also, in [6], the “DOWN MDEW” value is listed as “+++ (90-100% control at 100 ppm)”. Also, in assay [8], the mortality at 12 ppm amounted to 0%. For the same compound, in [8], the mortality at 24 ppm came out at 0%. The “POWD MDEW” value in assay [9] is listed as “+ (20-89% control at 400 ppm)”.

Consider `Clc1ccc(CCNc2ccnc3c(Cl)cccc23)cc1` [Example 85, 8-chloro-N-[2-(4-chlorophenyl)ethyl]-4-quinolinamine], for which, in assay [1], the mortality at 200 ppm stood at 0% and the mortality at 400 ppm turned out to be 0%. Also, in assay [2], the “GRAY MOLD” value is “- (0-19% control at 400 ppm)”. Moreover, in assay [3], the “RICE BLAST” value is reported as “- (0-19% control at 400 ppm)”. Moreover, in assay [4], the mortality at 200 ppm was determined as 0% and the mortality at 400 ppm amounted to 0%. Besides, in [5], the “LEAF RUST” value is recorded as “+ (20-89% control at 400 ppm)”. Besides, the “DOWN MDEW” value in [6] is “- (0-19% control at 400 ppm)”. In addition, in assay [7], the mortality at 200 ppm was 0% and the mortality at 400 ppm stood at 0%. Further, in assay [8], the mortality at 12 ppm came out at 0% and the mortality at 24 ppm was determined as 0%. The “POWD MDEW” value in assay [9] is “- (0-19% control at 400 ppm)”.

As for `FC(F)(F)c1cccc2c(NCCc3ccc(Cl)cc3)ccnc12` [Example 86, N-[2-(4-chlorophenyl)ethyl]-8-(trifluoromethyl)-4-quinolinamine], in assay [1], the mortality at 200 ppm was found to be 0% and the mortality at 400 ppm was 0%. The “GRAY MOLD” value in assay [2] is recorded as “- (0-19% control at 400 ppm)”. Besides, in assay [3], the “RICE BLAST” value was “- (0-19% control at 400 ppm)”. Besides, in [4], the mortality at 200 ppm worked out at 0% and the mortality at 400 ppm amounted to 0%. Also, in [5], the “LEAF RUST” value is “+ (20-89% control at 400 ppm)”. The “DOWN MDEW” value in assay [6] is on record as “+ (20-89% control at 400 ppm)”. In addition, in assay [7], the mortality at 200 ppm was determined as 0% and the mortality at 400 ppm stood at 0%. Also, in assay [8], the mortality at 12 ppm was determined as 0% and the mortality at 24 ppm stood at 0%. In assay [9], the “POWD MDEW” value is “- (0-19% control at 400 ppm)”.

As to `Fc1cccc2c(NCCc3ccc(Oc4ccccc4)cc3)ccnc12` [Example 90, 8-fluoro-N-[2-(4-phenoxyphenyl)ethyl]-4-quinolinamine], in [1], the mortality at 200 ppm is 80% and the mortality at 400 ppm was determined as 0%. Moreover, the “GRAY MOLD” value in [2] is reported as “- (0-19% control at 400 ppm)”. Further, the “RICE BLAST” value in assay [3] is “+++ (90-100% control at 100 ppm)”. Further, in assay [4], the mortality at 200 ppm stood at 100% and the mortality at 400 ppm was 0%. For the same compound, the “LEAF RUST” value in assay [5] is “+++ (90-100% control at 100 ppm)”. In assay [6], the “DOWN MDEW” value is “+++ (90-100% control at 100 ppm)”. Moreover, in assay [7], the mortality at 200 ppm was 80% and the mortality at 400 ppm stood at 0%. Further, the activity as miticides entry in assay [7] (summary statement in the description) is “particularly excellent activity”. Besides, in assay [8], the mortality at 12 ppm amounted to 0% and the mortality at 24 ppm turned out to be 0%. Besides, the “POWD MDEW” value in assay [9] is recorded as “- (0-19% control at 400 ppm)”.
